Assay results published in US12350276B2, “Methods for the treatment of cancer using 1-(4-{[4-(dimethylamino)piperidin-1-yl]carbonyl}phenyl)-3-[4-(4,6-dimorpholin-4-yl-1,3,5-triazin-2-yl)phenyl]urea” (Celcuity Inc., priority 2021, dated 2025).

Experiments:
Rb-negative tumors = conditions: reported by Michaud et al., Cancer Res. 70:3228-3238 (2010); cited from earlier work
[1] = aqueous formulation with methanesulphonic acid or ethanesulphonic acid; WO2019038657; cited from earlier work
[2] = Aqueous solubility / achievable solution concentration; format: physicochemical; conditions: free base; for aqueous IV or parenteral solution at therapeutic dosage levels
Source text: Gedatolisib is a pan-class I isoform PI3K/mTOR inhibitor with high potency (NCT02626507, Apr. 24, 2020). The chemical synthesis of gedatolisib is disclosed in U.S. Pat. Nos. 8,039,469; 8,217,036; 8,445,486; 8,575,159; 8,748,421; 8,859,542; 9,174,963; 10,022,381, which are hereby incorporated by reference in their entirety. […] Accordingly, formulations that allow for therapeutic dosage levels have been developed. The formulations include gedatolisib, or a methanesulphonate salt thereof, methanesulphonic acid, and water. […] Another formulation disclosed is gedatolisib, or an ethanesulphonate salt thereof, ethanesulphonic acid and water.

[3] = test system: MCF7 xenograft model (ER+/HER2−/PIK3CA mutant); conditions: cited from earlier work
[4] = test system: patients with ER+/HER2− metastatic breast cancer; assay: Phase 1b trial, expansion portion: gedatolisib plus palbociclib plus fulvestrant or letrozole; format: in vivo, human; conditions: for Overall Response Rate: partial objective response; for # of Partial Responses: patients who failed 2 or more prior lines of therapy; for median duration of treatment, Arm D relative to Arm C: 3 weeks on/1 week off vs weekly
Source text: To evaluate this hypothesis, Pfizer initiated a Phase 1b trial dose-finding trial with a four-armed expansion portion for safety and efficacy to evaluate gedatolisib when added to either the standard doses of palbociclib plus letrozole or palbociclib plus fulvestrant in patients with ER+/HER2− metastatic breast cancer. PI3K mutation status was not used as an eligibility criterion. Patient enrollment for the trial is complete. A preliminary analysis for the 103 patients enrolled in the expansion portion of the Phase 1b clinical trial, as of the database cutoff date of Jan. […] 1. Objectives
(§1) This is a Phase 1b, multicenter, open-label, study in patients with mBC. This study has both a dose escalation and expansion portion. The dose escalation portion will identify the MTD of the combination of gedatolisib plus palbociclib/letrozole and gedatolisib plus palbociclib/fulvestrant. The expansion portion will estimate the objective response rate of the combination of gedatolisib plus palbociclib/letrozole and the combination of gedatolisib plus palbociclib/fulvestrant.
The study population for the dose escalation and the dose expansion consists of patients of any menopausal status with ER-positive, HER2-negative, metastatic or locally-recurrent/advanced breast cancer (mBC).
Once the MTD of each combination was determined this triggers the initiation of the expansion portion, which comprises 4 arms, as follows: (1) Arm A: first-line endocrine-based therapy; (2) Arm B: second- or third-line endocrine-based therapy, without prior palbociclib (or other CDK inhibitor) therapy; (3) Arm C: second- or third-line endocrine-based therapy with prior exposure to palbociclib (or other CDK inhibitor) therapy, in which gedatolisib is administered once weekly for four weeks; and (4) Arm D: second or third line endocrine based therapy with progression on palbociclib (or other CDK inhibitor) therapy (as the most recent regimen), in which gedatolisib is administered on a three weeks on/one week off (3:1) schedule.
All cycles are 28 days in length. Gedatolisib is administered IV weekly on Days 1, 8, 15 and 22 of each cycle (except for Arm D, in which gedatolisib is administered on Days 1, 8 and 15 of each cycle), palbociclib is administered at 125 mg/day orally continuously dosed for 3 weeks followed by 1 week off, repeated at each subsequent cycle. Letrozole 2.5 mg daily is administered orally on a continuous basis (daily) and fulvestrant is administered at a dose of 500 mg intramuscularly on Cycle 1 Day 1, Cycle 1 Day 15, Cycle 2 Day 1, and then on […] of each subsequent cycle (±3 days).
Gedatolisib was administered weekly as an IV infusion over approximately 30 minutes. (Dose Escalation; Dose Expansion: Arm A, Arm B and Arm C).
In Arm D of the Dose Expansion portion, gedatolisib was administered on a 3 week on/one week off schedule as an IV infusion over approximately 30 minutes. No premedication was required.
The coprimary efficacy endpoints of the study were (1) first cycle Dose-Limiting Toxicities (DLTs); and (2) Objective response (OR) as assessed by the Investigator.
The secondary efficacy endpoints of the study were: • 1) Safety including adverse events as characterized by type, frequency, severity, timing, seriousness and relationship to study therapy and laboratory abnormalities as characterized by type, frequency, severity and timing. • 2) Tumor response for the dose escalation portion of the study. • 3) DR and PFS (as assessed using the RECIST v 1.1) for the expansion portion of the study. • 4) QTc interval. • 5) Single and multiple dose PK parameters of gedatolisib and palbociclib. Multiple dose PK parameters of fulvestrant and letrozole (Dose Escalation portion only). • 6) Single and multiple dose PK parameters of gedatolisib (Dose Expansion portion only). 7. Results
Arm D patients received gedatolisib (180 mg IV three weeks on/one week off). […]

[5] = Stability of crystalline form on storage; format: physicochemical; conditions: 25° C. and 60% Relative Humidity (RH)
Source text: Gedatolisib is a pan-class I isoform PI3K/mTOR inhibitor with high potency (NCT02626507, Apr. 24, 2020). The chemical synthesis of gedatolisib is disclosed in U.S. Pat. Nos. 8,039,469; 8,217,036; 8,445,486; 8,575,159; 8,748,421; 8,859,542; 9,174,963; 10,022,381, which are hereby incorporated by reference in their entirety. […] Accordingly, formulations that allow for therapeutic dosage levels have been developed.

[6] = Phase 1b trial, dose escalation portion: maximum tolerated dose; format: in vivo, human; conditions: IV, in triplet combination with palbociclib and letrozole or fulvestrant
Source text: The primary objective of the study was to assess the safety, tolerability, and maximum tolerated dose (MTD) of the triplet combination of gedatolisib added to either the standard dose of the palbociclib/letrozole or palbociclib/fulvestrant.
as §1
The dose escalation portion of the study initially assess safety and tolerability of the 180 mg/week dose of gedatolisib plus standard doses of palbociclib/letrozole or 180 mg/week dose of gedatolisib plus standard doses of palbociclib/fulvestrant. The dose escalation portion then explore escalating doses of gedatolisib plus each regimen. During the dose escalation 10 DLT evaluable patients are treated at the expected MTD.
The conventional approach to determining the dosing schedule for a therapeutic regimen for cancer patients is to determine the maximum tolerated dose in a Phase 1 clinical trial. […]

[7] = Arm C, weekly, failed 2 or more prior lines of therapy
[8] = Arm D vs Arm C, failed 2 or more prior lines of therapy
[9] = Arm D, 3 weeks on/1 week off, DIPT < 180 days
[10] = Arm D, 3 weeks on/1 week off, DIPT < 365 days
[11] = Arm D, 3 weeks on/1 week off, failed 2 or more prior lines of therapy

Compound: CC(=O)c1c(C)c2cnc(Nc3ccc(N4CCNCC4)cn3)nc2n(C2CCCC2)c1=O [PD-0332991, 6-acetyl-8-cyclopentyl-5-methyl-2-(5-piperazin-1-yl-pyridin-2-ylammino)-8H-pyrido-[2,3-d]-pyrimidin-7-one]
- activity against Rb-negative tumors (Rb-negative tumors): inactive

Compound: CN(C)C1CCN(C(=O)c2ccc(NC(=O)Nc3ccc(-c4nc(N5CCOCC5)nc(N5CCOCC5)n4)cc3)cc2)CC1 [gedatolisib, 1-(4-{[4-(Dimethylamino)piperidin-1-yl]carbonyl}phenyl)-3-[4-(4,6-dimorpholin-4-yl-1,3,5-triazin-2-yl)phenyl]urea]
- solution concentration achieved (clear, essentially particle-free solution) [1]: up to 30 mg/ml
- water solubility [2]: insufficiently water soluble
- time tumors remained dormant without further therapy ([3]; after triplet therapy (gedatolisib, palbociclib, fulvestrant)): up to 90 days
- tumor response ([3]; combination of gedatolisib with palbociclib and fulvestrant, Pfizer internal preclinical study): durable tumor regressions
- time for tumors to regress to minimal volumes ([3]; triplet therapy (gedatolisib, palbociclib, fulvestrant)): ≤ 20 days
- Median Duration of Gedatolisib (DGT) Treatment ([4]; Arm C, weekly gedatolisib with palbociclib and fulvestrant, DIPT < 180 days): 81 days
- Median Duration of Gedatolisib (DGT) Treatment ([4]; Arm C, weekly gedatolisib with palbociclib and fulvestrant, DIPT < 365 days): 131 days
- Ratio of median DIPT vs. DGT ([4]; Arm C, weekly, DIPT < 180 days): 0.8
- Overall Response Rate ([4]; Arm C, weekly, DIPT < 180 days): 0%
- Overall Response Rate ([4]; Arm C, weekly, DIPT < 180 days, listed as Gedatolisib): 0%
- Ratio of median DIPT vs. DGT ([4]; Arm C, weekly, DIPT < 365 days): 0.9
- Overall Response Rate ([4]; Arm C, weekly, DIPT < 365 days): 15%
- Overall Response Rate ([4]; Arm C, weekly, DIPT < 365 days, listed as Gedatolisib): 15%
- Mean Progression Free Survival [4, 7]: 233
- Objective Response Rate [4, 7]: 32%
- # of Partial Responses ([4]; Arm C, weekly, 19 evaluable): 6
- Mean Progression Free Survival, Odds Ratio [4, 8]: 2.28
- Objective Response Rate, Odds Ratio [4, 8]: 2.4
- Objective Response Rate, Odds Ratio ([4]; Arm D vs Arm C, failed 2 or more prior lines of therapy, listed as Gedatolisib): 2.44
- Ratio of median DIPT vs. DGT [4, 9]: 2.6
- Overall Response Rate [4, 9]: 71%
- Overall Response Rate ([4]; Arm D, 3 weeks on/1 week off, DIPT < 180 days, listed as Gedatolisib): 71%
- Ratio of median DIPT vs. DGT [4, 10]: 1.8
- Overall Response Rate [4, 10]: 73%
- Overall Response Rate ([4]; Arm D, 3 weeks on/1 week off, DIPT < 365 days, listed as Gedatolisib): 73%
- Mean Progression Free Survival [4, 11]: 531
- Objective Response Rate [4, 11]: 78%
- # of Partial Responses ([4]; Arm D, 3 weeks on/1 week off, 9 evaluable): 7
- Median Duration of Gedatolisib (DGT) Treatment ([4]; Arm D, gedatolisib 180 mg IV 3 weeks on/1 week off with palbociclib and fulvestrant, DIPT < 180 days): 270 days
- Median Duration of Gedatolisib (DGT) Treatment ([4]; Arm D, gedatolisib 180 mg IV 3 weeks on/1 week off with palbociclib and fulvestrant, DIPT < 365 days): 276 days
- Median progression free survival ([4]; Arm D: prior endocrine therapy plus CDK4/6 inhibitor, gedatolisib 3 weeks on/1 week off with palbociclib and fulvestrant): 13.2 months
- clinical benefit rate (CBR) ([4]; expansion portion, all arms, 88 evaluable patients, confirmed PR or stable disease for 24 weeks, cutoff Jan. 11, 2021): 75%
- objective response rate (ORR) ([4]; expansion portion, all arms, 88 evaluable patients, confirmed or unconfirmed PR, with palbociclib plus letrozole or fulvestrant, cutoff Jan. 11, 2021, preliminary analysis): 60%
- median duration of treatment, Arm D relative to Arm C ([4]; patients who progressed on immediate prior therapy in ≤6 months): more than 3 times
- median duration of treatment, Arm D relative to Arm C ([4]; patients who progressed on immediate prior therapy in ≤12 months): more than two times longer
- chemically and physically stable for [5]: up to 3 years
- maximum tolerated dose [6]: 180 mg weekly
